# Measured values published in US9815796B2 (Merck Sharp & Dohme Corp., priority 2013, dated 2017).
# Where two headings read alike, the source gives them in different places.
# Tests used:
# Rhesus PDE2A3 = Rhesus PDE2A3 (Macaca mulatta, UniProt B3VTJ2); assay: PDE2 fluorescence polarization (IMAP FP) inhibition assay, rhesus enzyme; type: biochemical, rhesus macaque
# In short: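 IMAP FP (mP from parallel and perpendicular fluorescence against substrate-only control) was read ≥1 h after adding binding reagent. The preceding 60 min room-temperature reaction contained FAM-cAMP (50 nM) and cGMP (1 uM) in pH 7.2 Tris buffer with MgCl2 and DTT. Enzyme was supernatant of sonicated AD293 cells expressing rhesus PDE2A3; compounds were 3-fold titrated, DMSO 1% final.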
# human PDE2A1 = human PDE2A1 (Homo sapiens (Human), UniProt O00408); assay: IMAP FP PDE selectivity panel, human PDE2A1; type: biochemical
# In short: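 IMAP FP format: substrate 50 nM FAM-cAMP plus 1000 nM cGMP, enzyme (insect-cell GST-tagged human PDE2A1) at ~20% conversion, 60 min reaction at room temperature. Apparent inhibition constants calculated from parallel/perpendicular fluorescence with KM 10,000 nM.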
# [1] = Rhesus PDE2, Lab A, read-out: Rhesus PDE2 Ki (nM) - Lab A
# [2] = Human PDE2, Lab A, read-out: Human PDE2 Ki (nM) - Lab A
# [3] = Rhesus PDE2, Lab B, read-out: Rhesus PDE2 Ki (nM) - Lab B
# [4] = Human PDE2, Lab B, read-out: Human PDE2 Ki (nM) - Lab B
# Sequence of human PDE2A1 (O00408 other isoform, or with tags, fused parts or gaps): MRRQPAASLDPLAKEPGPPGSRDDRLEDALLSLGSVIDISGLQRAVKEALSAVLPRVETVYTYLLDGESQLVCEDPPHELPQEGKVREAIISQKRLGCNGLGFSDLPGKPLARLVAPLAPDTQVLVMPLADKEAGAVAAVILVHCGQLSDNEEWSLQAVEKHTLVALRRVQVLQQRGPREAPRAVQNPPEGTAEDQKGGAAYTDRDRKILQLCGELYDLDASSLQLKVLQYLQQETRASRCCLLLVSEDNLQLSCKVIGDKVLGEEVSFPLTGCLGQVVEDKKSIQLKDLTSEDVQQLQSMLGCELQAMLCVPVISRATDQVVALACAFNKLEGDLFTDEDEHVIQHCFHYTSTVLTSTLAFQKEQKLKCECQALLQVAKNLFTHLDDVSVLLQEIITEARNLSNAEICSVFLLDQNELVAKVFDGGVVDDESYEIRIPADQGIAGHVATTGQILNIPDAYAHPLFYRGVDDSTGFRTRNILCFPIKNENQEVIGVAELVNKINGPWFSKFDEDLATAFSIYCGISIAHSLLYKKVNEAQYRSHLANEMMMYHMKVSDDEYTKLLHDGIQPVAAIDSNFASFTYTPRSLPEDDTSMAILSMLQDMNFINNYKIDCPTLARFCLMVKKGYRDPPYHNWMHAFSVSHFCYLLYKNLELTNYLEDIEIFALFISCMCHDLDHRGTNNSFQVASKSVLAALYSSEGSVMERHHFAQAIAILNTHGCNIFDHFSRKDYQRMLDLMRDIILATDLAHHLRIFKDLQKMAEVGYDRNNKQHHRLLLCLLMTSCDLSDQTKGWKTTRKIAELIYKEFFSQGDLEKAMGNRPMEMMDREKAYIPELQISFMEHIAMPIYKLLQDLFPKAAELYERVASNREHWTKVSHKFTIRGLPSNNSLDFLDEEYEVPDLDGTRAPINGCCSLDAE
# Sequence of Rhesus PDE2A3 (B3VTJ2 1-941): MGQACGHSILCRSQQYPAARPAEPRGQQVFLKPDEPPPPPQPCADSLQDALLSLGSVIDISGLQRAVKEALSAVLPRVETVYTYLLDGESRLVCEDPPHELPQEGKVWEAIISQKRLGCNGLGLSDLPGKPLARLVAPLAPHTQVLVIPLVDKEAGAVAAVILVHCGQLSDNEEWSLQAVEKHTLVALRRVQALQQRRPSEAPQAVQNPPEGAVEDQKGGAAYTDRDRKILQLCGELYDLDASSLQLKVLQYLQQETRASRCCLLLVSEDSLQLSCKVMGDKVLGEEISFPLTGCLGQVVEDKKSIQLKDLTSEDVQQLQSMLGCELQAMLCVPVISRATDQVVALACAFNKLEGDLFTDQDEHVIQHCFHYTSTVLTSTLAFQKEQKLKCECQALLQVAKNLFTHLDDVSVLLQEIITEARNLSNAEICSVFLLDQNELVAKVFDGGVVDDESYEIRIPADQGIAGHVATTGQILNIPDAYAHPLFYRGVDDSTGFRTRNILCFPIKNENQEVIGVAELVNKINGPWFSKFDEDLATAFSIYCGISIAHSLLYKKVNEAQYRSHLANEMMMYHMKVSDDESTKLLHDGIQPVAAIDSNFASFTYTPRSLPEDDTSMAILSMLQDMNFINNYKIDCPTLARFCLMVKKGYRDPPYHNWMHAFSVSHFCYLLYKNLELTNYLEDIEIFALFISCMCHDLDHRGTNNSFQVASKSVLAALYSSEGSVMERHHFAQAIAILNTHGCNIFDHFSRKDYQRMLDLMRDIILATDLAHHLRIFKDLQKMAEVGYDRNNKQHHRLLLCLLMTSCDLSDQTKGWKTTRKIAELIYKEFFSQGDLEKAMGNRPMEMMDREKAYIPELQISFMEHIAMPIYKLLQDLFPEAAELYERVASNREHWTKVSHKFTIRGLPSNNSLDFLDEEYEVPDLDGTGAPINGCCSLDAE
SMILES,Ki (Rhesus PDE2A3; [1]),Ki (human PDE2A1; [2]),Ki (Rhesus PDE2A3; [3]),Ki (human PDE2A1; [4])
"COC(=O)C(NC(=O)c1cc(=O)[nH]c(C)n1)c1ccc(C(F)(F)F)cc1 (racemic) [Example 325, Methyl 2-(2-methyl-6-oxo-1,6-dihydropyrimidine-4-carboxamido)-2-(4-(trifluoromethyl)phenyl)-acetate]",1100 nM,687 nM,–,–
"Cc1nc(C(=O)NC(C(=O)O)c2ccc(C(F)(F)F)cc2)cc(=O)[nH]1 (racemic) [Example 326, 2-(2-Methyl-6-oxo-1,6-dihydropyrimidine-4-carboxamido)-2-(4-(trifluoromethyl)phenyl)acetic acid]",70 nM,67 nM,–,–
"Cc1nc(C(=O)NC(C)(c2ccc(S(F)(F)(F)(F)F)cc2)C(C)C)cc(=O)[nH]1 (racemic) [Example 619, N-{1,2-dimethyl-1-[4-(pentafluoro-λ^6-sulfanyl)phenyl]propyl}-2-methyl-6-oxo-1,6-dihydropyrimidine-4-carboxamide]",–,–,62 nM,67 nM
"Cc1nc(C(=O)NC(C)c2ccc(C(C)C)cc2)cc(=O)[nH]1 (single isomer, unassigned) [Example 305, (R)- or (S)-2-methyl-N-{1-[4-(1-methylethyl)phenyl]ethyl}-6-oxo-1,6-dihydropyrimidine-4-carboxamide]",26 nM,20 nM,–,–
"Cc1nc(C(=O)NC(C)c2ccc(-c3ccccc3)cc2)cc(=O)[nH]1 (single isomer, unassigned) [Example 307, (R)- or (S)-N-(1-biphenyl-4-ylethyl)-2-methyl-6-oxo-1,6-dihydropyrimidine-4-carboxamide]",17 nM,16 nM,–,–
"Cc1nc(C(=O)NC(C)c2ccc(C(C)(C)C)cc2)cc(=O)[nH]1 (single isomer, unassigned) [Example 309, (R)- or (S)-N-[1-(4-tert-butylphenyl)ethyl]-2-methyl-6-oxo-1,6-dihydropyrimidine-4-carboxamide]",63 nM,43 nM,–,–
"Cc1nc(C(=O)NC(CO)c2ccc(C(F)(F)F)cc2)cc(=O)[nH]1 (single isomer, unassigned) [Example 312, (R)- or (S)-N-{2-hydroxy-1-[4-(trifluoromethyl)phenyl]ethyl}-2-methyl-6-oxo-1,6-dihydropyrimidine-4-carboxamide]",71 nM,41 nM,–,52 nM
"COc1ccc2cc(C(C)NC(=O)c3cc(=O)[nH]c(C)n3)ccc2c1 (single isomer, unassigned) [Example 313, (R)- or (S)-N-[1-(6-methoxynaphthalen-2-yl)ethyl]-2-methyl-6-oxo-1,6-dihydropyrimidine-4-carboxamide]",51 nM,54 nM,–,–
"Cc1nc(C(=O)NC(C(=O)O)c2ccc(C(F)(F)F)cc2)cc(=O)[nH]1 (single isomer, unassigned) [Example 327]",4550 nM,8100 nM,–,–
"Cc1nc(C(=O)NC(C(=O)O)c2ccc(C(F)(F)F)cc2)cc(=O)[nH]1 (single isomer, unassigned) [Example 328]",33 nM,38 nM,–,–
"Cc1nc(C(=O)NC(C)(c2ccc(S(F)(F)(F)(F)F)cc2)C(C)C)cc(=O)[nH]1 (single isomer, unassigned) [Example 663, (R)- or (S)-N-{1,2-dimethyl-1-[4-(pentafluoro-λ^6-sulfanyl)phenyl]propyl}-2-methyl-6-oxo-1,6-dihydropyrimidine-4-carhoxamide]",–,–,30 nM,34 nM
"Cc1nc(C(=O)N[C@H](C)c2ccc(S(F)(F)(F)(F)F)cc2F)cc(=O)[nH]1 [Example 673, N-(1-(2-fluoro-4-(pentafluorothio)phenyl)ethyl)-2-methyl-6-oxo-1,6-dihydropyrimidine-4-carboxamide]",–,–,–,32 nM

# The next lines start with the values.
Ki (Rhesus PDE2A3; [1]),Ki (human PDE2A1; [2]),Ki (Rhesus PDE2A3; [3]),Ki (human PDE2A1; [4]),SMILES
–,–,> 2970 nM,> 1240 nM,"Cc1nc(C(=O)NC(C)c2ccc(C(C)(C)C(F)(F)F)cc2)cc(=O)[nH]1 (single isomer, unassigned) [Example 694, (S)- or (R)-2-methyl-6-oxo-N-(1-(4-(1,1,1-trifluoro-2-methylpropan-2-yl)phenyl)ethyl)-1,6-dihydropyrimidine-4-carboxamide]"
–,–,8.7 nM,7.2 nM,"Cc1nc(C(=O)NC(c2ccc(SC(F)(F)F)c(F)c2)C2(C)CC2)cc(=O)[nH]1 (single isomer, unassigned) [Example 702, (R)- or (S)-N-((3-fluoro-4-((trifluoromethyl)thio)phenyl)(1-methylcyclopropyl)methyl)-2-methyl-6-oxo-1,6-dihydropyrimidine-4-carboxamide]"
–,–,4.7 nM,3.6 nM,"CC1(C(NC(=O)c2cc(=O)[nH]c(C3CC3)n2)c2ccc(SC(F)(F)F)c(F)c2)CC1 (single isomer, unassigned) [Example 704, (R)- or (S)-2-cyclopropyl-N-((3 fluoro-4-((trifluorormethyl)thio)phenyl)(1-methylcyclopropyl)methyl)-6-oxo-1,6-dihydropyrimidine-4-carboxamide]"
–,–,8.3 nM,7.7 nM,"CC1(C(NC(=O)c2cc(=O)[nH]c(-c3ccccc3)n2)c2ccc(SC(F)(F)F)c(F)c2)CC1 (single isomer, unassigned) [Example 707, (R)- or (S)-N-((3-fluoro-4-((trifluoromethyl)thio)phenyl)(1-methylcyclopropyl)methyl)-6-oxo-2-phenyl-1,6-dihydropyrimidine-4-carboxamide]"
–,–,8.1 nM,7.4 nM,"CC1(C(NC(=O)c2cc(=O)[nH]c(-c3ncccn3)n2)c2ccc(SC(F)(F)F)c(F)c2)CC1 (single isomer, unassigned) [Example 709, (R)- or (S)-N-((3-fluoro-4-((trifluoromethyl)thio)phenyl)(1-methylcyclopropyl)methyl)-6-oxo-1,6-dihydro-[2,2′-bipyrimidine]-4-carboxamide]"
–,–,–,234 nM,"C[C@@H](NC(=O)c1cc(=O)[nH]c(-c2ncco2)n1)c1ccc(C(F)(F)F)cc1 [Example 675, (R)-2-(oxazol-2-yl)-6-oxo-N-(1-(4-(trifluoromethyl)phenyl)ethyl)-1,6-dihydropyrimidine-4-carboxamide]"
–,–,–,478 nM,"Cc1cnc(-c2nc(C(=O)N[C@H](C)c3ccc(C(F)(F)F)cc3)cc(=O)[nH]2)o1 [Example 676, (R)-2-(5-methyloxazol-2-yl)-6-oxo-N-(1-(4-(trifluoromethyl)phenyl)ethyl)-1,6-dihydropyrimidine-4-carboxamide]"
–,–,–,7 nM,"Cc1nc(C(=O)NC2(c3ccc(C(F)(F)F)cc3)CC2(C)C)cc(=O)[nH]1 (stereo not drawn) [Example 681, N-(2,2-dimethyl-1-(4-(trifluoromethyl)phenyl)cyclopropyl)-2-methyl-6-oxo-1,6-dihydropyrimidine-4-carboxamide]"
–,–,–,8.6 nM,"Cc1nc(C(=O)N[C@@H](c2ccc(C(F)(F)F)c(F)c2)C(C)(C)O)cc(=O)[nH]1 [Example 723, N-{(1S)-1-[3-fluoro-4-(trifluoromethyl)phenyl]-2-hydroxy-2-methylpropyl}-2-methyl-6-oxo-1,6-dihydropyrimidine-4-carboxamide]"
–,–,–,3.1 nM,"Cc1nc(C(=O)N[C@@H](c2ccc(OC(F)(F)F)cc2)C(C)(C)O)cc(=O)[nH]1 [Example 724, N-{(1S)-2-hydroxy-2-methyl-1-[4-(trifluoromethoxy)phenyl]propyl}-2-methyl-6-oxo-1,6-dihydropyrimidine-4-carboxamide]"
